Measured values as given in ChEMBL document CHEMBL3885881, “DrugMatrix”.

Species on record: Rattus norvegicus
Experiment: DrugMatrix - Regimen: Daily Repeat
Format: toxicity, organism-based, Sprague-Dawley
Design: regimen Daily Repeat, gender Male, age 6-8 weeks
Conditions: in vivo, po, route oral GAVAGE, vehicle 100 % WATER; for CREATININE / GLUCOSE / LACTATE DEHYDROGENASE / LIPASE / PHOSPHORUS / POTASSIUM / SODIUM / TOTAL BILIRUBIN / TOTAL PROTEIN / URIC ACID / ALANINE AMINOTRANSFERASE / ALBUMIN / ALKALINE PHOSPHATASE / ASPARTATE AMINOTRANSFERASE / BLOOD UREA NITROGEN / CARBON DIOXIDE / CHLORIDE / CHOLESTEROL / CREATINE PHOSPHOKINASE: tissue Plasma; for ABSOLUTE BASOPHIL / ABSOLUTE EOSINOPHIL / ABSOLUTE LYMPHOCYTE / ABSOLUTE MONOCYTE / ABSOLUTE SEGMENTED NEUTROPHIL / BASOPHIL / EOSINOPHIL / ERYTHROCYTE COUNT / HEMATOCRIT / HEMOGLOBIN / LEUKOCYTE COUNT / LYMPHOCYTE / MEAN CORPUSCULAR HEMOGLOBIN / MEAN CORPUSCULAR HEMOGLOBIN CONCENTRATION / MEAN CORPUSCULAR VOLUME / MONOCYTE / NEUTROPHIL / NUCLEATED RED BLOOD CELLS / PLATELET COUNT: tissue Blood
[1] = 25 mg/kg, 120 h, dose level Low, time 5 day
[2] = 54 mg/kg, 72 h, dose level High, time 3 day
[3] = 54 mg/kg, 120 h, dose level High, time 5 day
[4] = 80 mg/kg, 72 h, dose level High, time 3 day
[5] = 80 mg/kg, 120 h, dose level High, time 5 day

CCC1(c2ccccc2)C(=O)NC(=O)NC1=O [PHENOBARBITAL]
CREATININE [1]: 0.15 mg/dL | GLUCOSE [1]: 135.67 mg/dL | LACTATE DEHYDROGENASE [1]: 131 u/L | LIPASE [1]: 9.33 u/L | PHOSPHORUS [1]: 11 mg/dL | POTASSIUM [1]: 6.37 MEQ/L | SODIUM [1]: 145.53 MEQ/L | TOTAL BILIRUBIN [1]: 0.17 mg/dL | TOTAL PROTEIN [1]: 6.23 G/DL | URIC ACID [1]: 0.7 mg/dL | ABSOLUTE BASOPHIL [2]: 0 CELLS/uL | ABSOLUTE EOSINOPHIL [2]: 0 CELLS/uL | ABSOLUTE LYMPHOCYTE [2]: 6613.67 CELLS/uL | ABSOLUTE MONOCYTE [2]: 76.67 CELLS/uL | ABSOLUTE SEGMENTED NEUTROPHIL [2]: 1009.67 CELLS/uL | BASOPHIL [2]: 0% | EOSINOPHIL [2]: 0% | ERYTHROCYTE COUNT [2]: 5.6 x10E6/uL | HEMATOCRIT [2]: 34.33% | HEMOGLOBIN [2]: 13.17 G/DL | LEUKOCYTE COUNT [2]: 7.7 x10E3/uL | LYMPHOCYTE [2]: 86% | MEAN CORPUSCULAR HEMOGLOBIN [2]: 23.53 pg | MEAN CORPUSCULAR HEMOGLOBIN CONCENTRATION [2]: 38.37 G/DL | MEAN CORPUSCULAR VOLUME [2]: 61.37 fL | MONOCYTE [2]: 1% | NEUTROPHIL [2]: 13% | NUCLEATED RED BLOOD CELLS [2]: 0 /100WBC | PLATELET COUNT [2]: 1130.67 x10E3/uL | ALANINE AMINOTRANSFERASE [2]: 66.33 u/L | ALBUMIN [2]: 3.9 G/DL | ALKALINE PHOSPHATASE [2]: 296.33 u/L | ASPARTATE AMINOTRANSFERASE [2]: 99.33 u/L | BLOOD UREA NITROGEN [2]: 16.33 mg/dL | CARBON DIOXIDE [2]: 35.67 mmol/L | CHLORIDE [2]: 98.5 MEQ/L | CHOLESTEROL [2]: 85.67 mg/dL | CREATINE PHOSPHOKINASE [2]: 643 u/L | CREATININE [2]: 0.14 mg/dL | GLUCOSE [2]: 132.33 mg/dL | LACTATE DEHYDROGENASE [2]: 152.67 u/L | LIPASE [2]: 11 u/L | PHOSPHORUS [2]: 10.93 mg/dL | POTASSIUM [2]: 5.81 MEQ/L | SODIUM [2]: 144.8 MEQ/L | TOTAL BILIRUBIN [2]: 0.2 mg/dL | TOTAL PROTEIN [2]: 5.87 G/DL | URIC ACID [2]: 0.63 mg/dL | ABSOLUTE BASOPHIL [3]: 0 CELLS/uL | ABSOLUTE EOSINOPHIL [3]: 0 CELLS/uL | ABSOLUTE LYMPHOCYTE [3]: 8394.67 CELLS/uL | ABSOLUTE MONOCYTE [3]: 27.33 CELLS/uL | ABSOLUTE SEGMENTED NEUTROPHIL [3]: 1011.33 CELLS/uL | BASOPHIL [3]: 0% | EOSINOPHIL [3]: 0% | ERYTHROCYTE COUNT [3]: 5.14 x10E6/uL | HEMATOCRIT [3]: 32.97% | HEMOGLOBIN [3]: 12.8 G/DL | LEUKOCYTE COUNT [3]: 9.43 x10E3/uL | LYMPHOCYTE [3]: 89.33% | MEAN CORPUSCULAR HEMOGLOBIN [3]: 24.87 pg | MEAN CORPUSCULAR HEMOGLOBIN CONCENTRATION [3]: 38.83 G/DL | MEAN CORPUSCULAR VOLUME [3]: 64.1 fL | MONOCYTE [3]: 0.33% | NEUTROPHIL [3]: 10.33% | NUCLEATED RED BLOOD CELLS [3]: 0 /100WBC | PLATELET COUNT [3]: 1251 x10E3/uL | ALANINE AMINOTRANSFERASE [3]: 51 u/L | ALBUMIN [3]: 4.2 G/DL | ALKALINE PHOSPHATASE [3]: 333.33 u/L | ASPARTATE AMINOTRANSFERASE [3]: 88.33 u/L | BLOOD UREA NITROGEN [3]: 18.33 mg/dL | CARBON DIOXIDE [3]: 32.67 mmol/L | CHLORIDE [3]: 100.67 MEQ/L | CHOLESTEROL [3]: 84 mg/dL | CREATINE PHOSPHOKINASE [3]: 245.33 u/L | CREATININE [3]: 0.16 mg/dL | GLUCOSE [3]: 134.67 mg/dL | LACTATE DEHYDROGENASE [3]: 129.33 u/L | LIPASE [3]: 9.67 u/L | PHOSPHORUS [3]: 10.53 mg/dL | POTASSIUM [3]: 6.17 MEQ/L | SODIUM [3]: 145.07 MEQ/L | TOTAL BILIRUBIN [3]: 0.2 mg/dL | TOTAL PROTEIN [3]: 6.4 G/DL | URIC ACID [3]: 0.8 mg/dL | BASOPHIL [4]: 0.45% | EOSINOPHIL [4]: 0.45% | ERYTHROCYTE COUNT [4]: 7.21 x10E6/uL | HEMATOCRIT [4]: 44% | HEMOGLOBIN [4]: 13.8 G/DL | LEUKOCYTE COUNT [4]: 13.79 x10E3/uL | LYMPHOCYTE [4]: 79.7% | MEAN CORPUSCULAR HEMOGLOBIN [4]: 19.15 pg | MEAN CORPUSCULAR HEMOGLOBIN CONCENTRATION [4]: 31.35 G/DL | MEAN CORPUSCULAR VOLUME [4]: 61.05 fL | MONOCYTE [4]: 2.35% | NEUTROPHIL [4]: 15.8% | PLATELET COUNT [4]: 1419.5 x10E3/uL | ALANINE AMINOTRANSFERASE [4]: 37.33 u/L | ALBUMIN [4]: 3.43 G/DL | ALKALINE PHOSPHATASE [4]: 281 u/L | ASPARTATE AMINOTRANSFERASE [4]: 57 u/L | BLOOD UREA NITROGEN [4]: 12.33 mg/dL | CHLORIDE [4]: 103 MEQ/L | CHOLESTEROL [4]: 84.33 mg/dL | CREATINE PHOSPHOKINASE [4]: 205.33 u/L | CREATININE [4]: 0.37 mg/dL | GLUCOSE [4]: 185 mg/dL | PHOSPHORUS [4]: 13.43 mg/dL | POTASSIUM [4]: 6.63 MEQ/L | SODIUM [4]: 147 MEQ/L | TOTAL BILIRUBIN [4]: 0.43 mg/dL | TOTAL PROTEIN [4]: 5.8 G/DL | BASOPHIL [5]: 0.43% | EOSINOPHIL [5]: 0.4% | ERYTHROCYTE COUNT [5]: 6.51 x10E6/uL | HEMATOCRIT [5]: 40.63% | HEMOGLOBIN [5]: 13.03 G/DL | LEUKOCYTE COUNT [5]: 13 x10E3/uL | LYMPHOCYTE [5]: 81.9% | MEAN CORPUSCULAR HEMOGLOBIN [5]: 20.1 pg | MEAN CORPUSCULAR HEMOGLOBIN CONCENTRATION [5]: 32.13 G/DL | MEAN CORPUSCULAR VOLUME [5]: 62.43 fL | MONOCYTE [5]: 2.6% | NEUTROPHIL [5]: 13.63% | PLATELET COUNT [5]: 1415.67 x10E3/uL | ALANINE AMINOTRANSFERASE [5]: 40.33 u/L | ALBUMIN [5]: 3.43 G/DL | ALKALINE PHOSPHATASE [5]: 257 u/L | ASPARTATE AMINOTRANSFERASE [5]: 54 u/L | BLOOD UREA NITROGEN [5]: 12 mg/dL | CHLORIDE [5]: 103.67 MEQ/L | CHOLESTEROL [5]: 104 mg/dL | CREATINE PHOSPHOKINASE [5]: 162.67 u/L | CREATININE [5]: 0.37 mg/dL | GLUCOSE [5]: 183.67 mg/dL | PHOSPHORUS [5]: 12.7 mg/dL | POTASSIUM [5]: 6.67 MEQ/L | SODIUM [5]: 145.67 MEQ/L | TOTAL BILIRUBIN [5]: 0.33 mg/dL | TOTAL PROTEIN [5]: 5.87 G/DL
